For experiment [1], the system named is U937 cells. Nature of the experiment: Test on nuclear transport (confocal Z scan, DAPI). In kind it is cell-based, human. The following applies: 50 μg/mL, 9 days. An excerpt:
(§1) Human fibrosarcoma-derived HT-1080 cells (HT-1080 cells, JCRB cell bank) were used as cancer cells in the test for monitoring changes in mitochondrial membrane potential. HT-1080 cells, human osteosarcoma cell line Hos cells (Hos cells, JCRB cell bank), human histiocytic lymphoma/macrophage U937 cells (U937 cells, JCRB cell bank), human myeloid leukemia HL-60 cells (HL-60 cells, JCRB cell bank), acute monocytic leukemia THP-1 cells (THP-1 cells, JCRB cell bank), human alveolar basal epithelial adenocarcinoma cell A549 cells (A549 cells, Cell Resource Center for Biomedical Research, Institute of Development, Aging and Cancer, Tohoku University), human pancreatic carcinoma cells (MIA Paca 2 cells, Cell Resource Center for Biomedical Research, Institute of Development, Aging and Cancer, Tohoku University) and well differentiated human liver carcinoma-derived cell line HuH7 cells (HuH7 cells, Cell Resource Center for Biomedical Research, Institute of Development, Aging and Cancer, Tohoku University) were used as cancer cells in an in vitro cell-death induction test of cancer cells and a nuclear transport test of Example 2. Normal human gingival fibroblast cells Gin-1 (Gin-1 cells, DS Pharma Biomedical) were used as a control. The above-described cells were each inoculated into a 96-well culture plate (Falcon) at 5,000 cells/[…] and subjected to the following tests.
(§2) Further, 50 μg/mL of Example 2 was added to the Gin-1 or above cancer cells. The cells were cultured for 9 days and scanned with Z scan technique using the confocal laser scanning microscope LSM800 after dyed with DAPI. FIG. 5A is each photograph of XY, XZ and YZ cross sections that was merged with Example 2 (green) and DAPI (blue) in the Gin-1 or above-described cancer cells. […] The color of the images merged with the Example 2 and DAPI dye took on light blue in the U937, H1-60, THP-1 and Hos cells.

The test system of experiment [2] is Hos cells. The experiment can be described thus: Test on nuclear transport (confocal Z scan, DAPI). In kind it is cell-based, human. The following applies: 50 μg/mL, 9 days.
Text: as §1, §2

For experiment [3], the system named is Gin-1 cells. Nature of the experiment: Test on nuclear transport (confocal Z scan, DAPI). Format: cell-based, human. The following applies: 50 μg/mL, 9 days.
Text: as §1, §2

The test system of experiment [4] is THP-1 cells. Nature of the experiment: Test on nuclear transport (confocal Z scan, DAPI). In kind it is cell-based, human. The following applies: 50 μg/mL, 9 days.
Text: as §1, §2

The subject of experiment [5] is HL-60 cells. The experiment can be described thus: Test on nuclear transport (confocal Z scan, DAPI). Format: cell-based, human. The following applies: H1-60 cells, 50 μg/mL, 9 days.
Text: as §1, §2

For experiment [6], the system named is HuH7 cells. Nature of the experiment: Test on nuclear transport (confocal Z scan, DAPI). In kind it is cell-based, human. The following applies: 50μ/mL, 23 days.
Text: as §1
(§3) Similarly, 50μ/mL of Example 2 was added to the A549, MIA Paca2 and HuH7 cells. The cells were cultured for 23 days and then scanned by the Z scan technique using the confocal laser scanning microscope LSM800 after dyed with DAPI. FIG. 5B is each photograph of XY, XZ and YZ cross sections that were merged with Example 2 (green) and DAPI (blue) in the variety of cancer cells. As a result, the color of the images merged with Example 2 and DAPI dye took on light blue.

Experiment [7] deals with A549 cells. The experiment can be described thus: Test on nuclear transport (confocal Z scan, DAPI). Format: cell-based, human. The following applies: 50μ/mL, 23 days.
Text: as §1, §3

Experiment [8] relates to MIA Paca2 cells. Nature of the experiment: Test on nuclear transport (confocal Z scan, DAPI). Format: cell-based, human. The following applies: 50μ/mL, 23 days.
Text: as §1, §3

The test system of experiment [9] is U937 cells. The experiment can be described thus: Test of inducing cell-death in vitro (Calcein-AM/PI dead cell rate). Format: cell-based, human. The following applies: 50 μg/mL, 9 days.
Text: as §1
(§4) The peptide of SEQ ID NO: 1 labeled with FITC (Example 2) was used for the test of inducing cell-death in vitro in cancer cells. It was prepared the test example to which 100 μL of Example 2 and further 10% FBS were added and cultured for 9 days under conditions of 200 μL of serum-supplemented medium (Alpha modification of Eagle's MEM (α-MEM) (Thermo Fisher Scientific)+10% FBS). Furthermore, it was also produced the test example that was cultured for 21 days with the whole amount of Example 2-supplemented medium replaced every 7 days. As a control, the cells were cultured in a serum-supplemented medium (α-MEM+10% FBS) without addition and were used. A supernatant was removed after the completion of the culture. The cells were washed once with PBS and stained in PBS to which a fluorescent dye for living cell staining Calcein-AM (DOJINDO LABORATORIES) (final concentration: 0.1 μg/mL) and a fluorescent dye for dead cell staining Propidium Iodide (PI) (DOJINDO LABORATORIES) (final concentration: 0.3 μg/mL) were added, at 37° C. in a 5% CO2 cell incubator for 30 minutes. The living cells and dead cells were separately stained with Calcein-AM and PI, respectively and imaged with the confocal laser scanning microscope LSM800. Next, the dead cell rate relative to the number of total cells was analyzed using ImageJ.
(§5) The results are represented by the average value of the dead cell rate (the number red cells stained with IP/the number of total cells×100(%))±standard deviation (SD). In FIG. 2A, the vertical axis represents the rate of cell death when each cell was cultured with Example 2 (50 μg/mL) for 9 days and the horizontal axis represents various types of cells. The increase in the dead cell rate of the Gin-1 cells was not observed.

The subject of experiment [10] is Hos cells. The description is as above. Format: cell-based, human. The following applies: 50 μg/mL, 9 days.
Text: as §1, §4, §5

Experiment [11] has as its system Gin-1 cells. The description is as above. Format: cell-based, human. The following applies: 50 μg/mL, 9 days.
Text: as §1, §4, §5

For experiment [12], the system named is THP-1 cells. The experiment is described as above. Format: cell-based, human. The following applies: 50 μg/mL, 9 days.
Text: as §1, §4, §5

The subject of experiment [13] is HL-60 cells. The description is as above. In kind it is cell-based, human. The following applies: 50 μg/mL, 9 days.
Text: as §1, §4, §5

Experiment [14] addresses T1, CD13 on Gin-1 cells (Homo sapiens, UniProt P15144).
T1 construct: endogenous in cells; host or cells: Gin-1 cells
Nature of the experiment: Binding test to cell membrane (confocal, CD13 co-staining). The following applies: 1 μg/100 μL, 4° C., 1 hour. In kind it is cell-based. Here is the method: (§6) A PE-labeled human CD13 antibody (Clone: WM-15 Biolegend) ([…]) and Example 2 (1 μg/100 μL) were added to each of the cells (500,000 cells/[…]), and the cells were stained at 4° C. for 1 hour. After the cells were washed with PBS, CD13 expression of each cell and binding site of Example 2 were observed as the standard of the fluorescence intensity of the HT-1080 cells using the confocal laser scanning microscope LSM800. The expression of CD13 (red) was strongest and the luminescence of Example 2 (green) was also strong in the HT-1080 and Gin-1 cells. […] Further, the same phenomenon about CD13 expression was also recognized in the U937, HL-60, THP-1 and Hos cells (not shown).

For experiment [15], the target named is T2, CD13 on HT-1080 cells (Homo sapiens, UniProt P15144).
T2 construct: endogenous in cells; host or cells: HT-1080 cells
T2 sequence (P15144 whole entry): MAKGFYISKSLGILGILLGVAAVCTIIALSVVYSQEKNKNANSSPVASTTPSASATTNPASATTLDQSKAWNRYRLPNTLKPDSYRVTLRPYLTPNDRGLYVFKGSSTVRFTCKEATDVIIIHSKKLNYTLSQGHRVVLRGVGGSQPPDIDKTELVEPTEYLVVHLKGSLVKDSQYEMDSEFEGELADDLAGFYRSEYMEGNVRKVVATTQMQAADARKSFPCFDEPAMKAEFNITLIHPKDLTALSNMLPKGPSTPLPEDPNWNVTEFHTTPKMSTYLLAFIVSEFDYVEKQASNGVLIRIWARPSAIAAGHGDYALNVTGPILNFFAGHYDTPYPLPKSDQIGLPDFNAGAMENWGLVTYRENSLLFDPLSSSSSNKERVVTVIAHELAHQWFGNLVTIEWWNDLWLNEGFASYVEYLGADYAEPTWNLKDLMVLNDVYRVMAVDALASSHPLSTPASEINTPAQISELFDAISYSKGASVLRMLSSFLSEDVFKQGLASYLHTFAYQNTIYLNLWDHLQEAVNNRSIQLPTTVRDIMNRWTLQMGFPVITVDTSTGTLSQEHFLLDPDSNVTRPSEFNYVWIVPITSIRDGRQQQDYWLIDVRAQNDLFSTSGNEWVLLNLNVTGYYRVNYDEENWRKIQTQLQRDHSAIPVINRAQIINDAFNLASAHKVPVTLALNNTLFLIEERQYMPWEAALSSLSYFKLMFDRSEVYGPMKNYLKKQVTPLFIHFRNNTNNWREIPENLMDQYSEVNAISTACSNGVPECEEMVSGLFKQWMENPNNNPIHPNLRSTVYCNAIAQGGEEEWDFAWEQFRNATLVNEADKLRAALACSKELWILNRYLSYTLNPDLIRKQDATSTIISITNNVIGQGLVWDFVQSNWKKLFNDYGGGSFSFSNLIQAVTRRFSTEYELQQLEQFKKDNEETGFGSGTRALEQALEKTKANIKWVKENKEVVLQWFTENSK
The description is as above. The following applies: 1 μg/100 μL, 4° C., 1 hour. In kind it is cell-based. Here is the method: as §6

This is an account of results in patent US12472226B2, “Cell-permeable peptide” (priority 2019, dated 2025).

Non-standard residues stand in square brackets, D forms with d. No end group written: not given here. *: point of attachment. FITC = O=C1OC2(c3ccc(O)cc3Oc3cc(O)ccc32)c2ccc(NC(=S)*)cc21; Ahx = NCCCCCC(=O)O

T1 sequence (P15144 whole entry): as above

For the substance “Example 2: peptide of SEQ ID NO: 1 labeled with FITC, bound via an Ahx linker at the N-terminus ({FITC}-[Ahx]KDNRGNLLQCVCTGNGRGEWKC; cysteine pairing not given here)”, the intracellular localization entry in [1] was “transfer to a nucleus and bind to a chromosome DNA”; in experiment [2] it was “transfer to a nucleus and bind to a chromosome DNA”; in experiment [3], “remain still in the cytoplasm”; in [4], “transfer to a nucleus and bind to a chromosome DNA”; in experiment [5], “transfer to a nucleus and bind to a chromosome DNA”; in [6] it was “transfer to a nucleus and bind to a chromosome DNA”. For the same substance, the intracellular localization entry in experiment [7] is “transfer to a nucleus and bind to a chromosome DNA”; in experiment [8], “transfer to a nucleus and bind to a chromosome DNA”. The “increase in the dead cell rate vs control” value is given as “significant difference at the level of 1%” in experiment [9]; “significant difference at the level of 1%” in experiment [10]; “not observed” in experiment [11]; “significant difference at the level of 5%” in [12]; “significant difference at the level of 1%” in experiment [13]. Besides, the “colocalization with CD13 (overlay images)” value in experiment [14] and in experiment [15] was “colocalized” each time. In addition, the “luminescence of the peptide (green) on cells” value in experiment [14] and in experiment [15] was “strong” throughout.
